The source of these data is US6939892B2, “Compositions for treating or preventing malaria and method of treating malaria” (Zaidan Hojin Biseibutsu Kagaku Kenkyu Kai, priority 2000, dated 2005).

Usually LD50 stands for the dose at which mortality reaches 50%. A high value points to a less toxic substance.

The subject of one series is Plasmodium falciparum. Briefly: In vitro test of inhibitory activity against proliferation of malarial parasites in human red blood cells. The series is classed as cell-based. Conditions: for Selective toxicity: ratio of EC50 for the F28-7 cell line to EC50 for the malarial parasite (P. falciparum FCR-3 strain); for Rate (%) of proliferation of malarial parasite: 72 hours. The procedure: In this test Example, two strains of Plasmodium falciparum, namely strain FCR-3 (ATCC 30932) and strain Honduras-1 (ATCC 30950) were used as the malarial parasites to be tested, and each malarial strain was incubated separately in vitro as described below. […] The resulting culture medium as supplemented with the human serum was then adjusted to have a hematocrit level (namely, a ratio of the total volume of the red blood cells to the volume of the liquid culture medium comprising the suspended red blood cells) of 5%, and thereafter the culture medium as adjusted was placed in individual wells of 24-well incubation microplates. The culture medium in each well was inoculated with Plasmodium falciparum under test. The initial rate (%) of infection of the red blood cells with the malarial parasite in individual wells was then adjusted to a value of 0.1% at the start of the incubation. Thereafter, there was carried out the incubation of the red blood cells along with the infecting Plasmodium falciparum. This incubation was effected at 36.5° C. in an atmosphere comprising 5.0% oxygen, 5.0% carbon dioxide and 90% nitrogen.
The culture medium present in each well was daily changed freshly. At the time when the rate (%) of infection of the red blood cells with the malarial parasite increased to reach a value of 4%, the transfer of the incubated cultures to another incubation microplates was conducted. Thus, the cultures of the malarial parasites under test were prepared.
By the way, the rate (%) of infection of the red blood cells with the malarial parasite as above-mentioned was evaluated by a procedure that comprised removing a sample from the culture of the parasitized red blood cells in each well, preparing thin blood film specimen containing the red blood cells from each sample, staining said thin blood film specimen by means of Giemsa staining or Diff-Qick staining method, counting the number of the stained red blood cells as infected with the malarial parasite per one thin blood film, under a microscope (oil immersion; 1,000×), and calculating the rate (%) of infection of the red blood cells with malarial parasite according to the undermentioned equation: [formula]
In turn, the abovementioned culture of the parasitized red blood cells as prepared in the above was subjected to a centrifugation to collect the red blood cells which had been infected with the malarial parasite. The infected red blood cells so collected were washed with an PRMI 1640 medium supplemented with the human serum, and then were added with such red blood cells which were not yet infected with the malarial parasite. Thus, there was prepared such a culture of the malarial parasite having infected the red blood cells, in which the initial rate (%) of infection of the red blood cells with the malarial parasite had firstly been adjusted to a value of 0.3%. The hematocrit level of this culture of the malarial parasite so prepared at this time point was 3%.
On the other hand, the compound to be tested in the present experiments was previously prepared in the form of a solution of each compound dissolved in a sterilized water, dimethylformamide (DMF) or dimethylsulfoxide (DMSO).
(i) The culture medium to be used for incubation of malarial parasite as above-mentioned was placed in individual wells of a multidish 24-wells. Then, for the treated test groups, each solution of the test compound as previously prepared in the above was added in an amount of 5 to 10 microliters (μl) into each well containing said culture medium therein. Then, the concentration of the test compound as added to the culture medium present in the individual wells of the multidish 24-well microplates was adjusted to different values in the individual wells. The test was carried out in duplicate or triplicate. On the other hand, for the control test groups (untreated), no test compound was added to each well, but instead thereof sterilized water, DMF or DMSO was added thereto in an amount of 10 μl.

Series [1] relates to subclone F28-7 cells of FM3A cell line originating from a mouse mammary tumor. Briefly: Toxicity of test compound against subclone F28-7 cells of FM3A cell line (cell proliferation). The series is classed as cell-based. To be noted: for EC50: Mus musculus, FM3A; for Rate (%) of proliferation of cells of the F28-7 cell line: 48 hours. The procedure: Cells of subclone F28-7 cell line of a mouse mammary tumor, which is a wild type cell line of the FM3A cell line originating from a mouse mammary tumor, were used as the test cells. The culture medium to be used for cultivation of the cells of the subclone F28-7 cell line was prepared by supplementing an ES medium with 2% of a heat-inactivated fetal bovine serum. The cultivation of the subclone F28-7 cell line under test was effected in this serum-supplemented ES medium at 37° C. in air containing 5% CO2.
After the pre-cultivation was effected, the cell density of cells of the subclone F28-7 cell line which had entered the logarithmic proliferation phase was adjusted to a level of 5×10^4 cells/ml by diluting the culture of the cells with a volume of the fresh culture medium. Thus, there was prepared a cell suspension of cells of the subclone F28-7 cell line as cultured.
For the solution of the test compound, there was used the same solution as that which was hereinbefore prepared in the test for the determination of the antimalarial activity of the test compound against the proliferation of malarial parasite.
The culture medium to be used for the cultivation of the subclone F28-7 cell line above mentioned was placed in the individual wells of a multidish 24-wells. Then, for the treated test groups, the solution of the test compound was added in an amount of 5˜10 microliters to the culture medium in each well of the incubation plate so as to adjust a final concentration of the test compound as added to be 1×10^−4 to 1×10^−6 M.
The test was carried out in duplicate or triplicate. On the other hand, for the control test groups (untreated), no test compound was added to each well, but instead thereof a sterilized water, DMF or DMSO was added to each well in an amount of 10 μl. Then, the cell suspension of cells of the subclone F28-7 cell line as already prepared in the above was dispensed in an amount of 990-995 μl to each well by pipetting. The pipetting was effected carefully and gently, so that the cells as added were evenly suspended in the culture medium in each well. Thereafter, the cells of subclone F28-7 cell line were incubated for 48 hours under the aforesaid cultivating conditions. Then, the number of the cells of the subclone F28-7 cell line was counted by means of a microcell counter (CC-108, Toa Medical Electric Co.) for the cell culture as obtained in the individual wells of both the treated test groups and the control test (untreated) groups.
The inhibitory activity of the test compound against the proliferation of cells of the subclone F28-7 cell line was subsequently estimated from such value of the rate (%) of the proliferation of cells of the subclone F28-7 cell line which is defined by the undermentioned equation with reference to the counted number of cells of the subclone F28-7 cell line in the cell culture contained in each well and having been incubated in the presence of the test compound added for the treated test group, and with reference to the counted number of cells of the subclone F28-7 cell line having been incubated in the absence of the test compound for the control test group. The toxicity of the test compound was thus evaluated from the value of the rate (%) of proliferation of cells of the subclone F28-7 cell line so estimated. [formula]

The subject of series [2] is Plasmodium berghei NK65 strain. Briefly: In vivo test of antimalarial activity against malarial parasite in infected ICR mice. To be noted: ICR mice infected with P. berghei NK65, dose of 5 mg/kg, printed 'intravenous injection', once a day on Day 0 and Day 1, blood read on Day 4.
Description: As mice for this test, there were used ICR mice (male) of 5-weeks old with body weight of 26-31 g (five mice per group). As the source of the malarial infection for this experiment, murine malarial parasite, Plasmodium berghei NK65 strain was used.
Blood sample was drawn by cardiac puncture from each of the donor ICR mice which had been infected with Plasmodium berghei NK65 strain. […]
For sake of convenience, a time schedule was so set that the time of inoculating the test mice with the malarial parasite by intravenous injection of the cell suspension of the parasitized red blood cells was Day 0. […] For both of the untreated test group and the treated test group, the rate (%) of infection of the red blood cells with the malarial parasite in each of the mouse blood samples was evaluated. […] The rate (%) of inhibition against the proliferation of the malarial parasite used here indicates such value as calculated by the following equation: [formula] where A means the average rate (%) of infection of the red blood cells with the malarial parasite as effected in the untreated test group, and B means the average rate (%) of infection of the red blood cells with the malarial parasite as effected in the treated test group.
Series [3] can be described thus: Acute toxicity, intraperitoneal injection. The series is classed as in vivo. To be noted: mouse, in vivo, ip; ICR mice, intraperitoneal administration, 14th day. The procedure:
(§1) SF2487 substance (Na salt) in the form of a solution dissolved in a physiological saline containing 10% DMSO was administered to ICR mice (5-weeks old, 3 mice per group) in different doses by intraperitoneal injection.

A further series concerns ICR mice. Briefly: Acute toxicity, intraperitoneal injection. The series is classed as in vivo. To be noted: 14th day, 3 mice per group. The protocol: as §1
Another series can be described thus: Solubility in solvents. It counts as physicochemical.
Where [4] appears, read: read-out: EC50 values, namely molar concentrations of test compound for the 50% inhibition of proliferation, P. falciparum FCR-3 strain, 72 hours incubation.
[5] abbreviates: read-out: EC50 values, namely molar concentrations of test compound for the 50% inhibition of proliferation, the F28-7 cell line, F28-7 cell line, 48 hours incubation.
The mark [6] stands for this setting: 48 h, read-out: EC50 values, namely molar concentrations of test compound for the 50% inhibition of proliferation, the F28-7 cell line.
[7] abbreviates: 1 × 10^−7 Molar test compound in culture medium.

SMILES strings stand for the structures. Where a name gives a salt, the structure may show the parent alone. Read-outs that look alike come from different tables or passages of the source.

Regarding `OC(c1cc(C(F)(F)F)nc2c(C(F)(F)F)cccc12)C1CCCCN1` (stereo not drawn) [Mefloquine, reference compound], in the series with Plasmodium falciparum, the Selective toxicity turned out to be 91. For the same molecule, the values for the EC50 (with Plasmodium falciparum (setting [4]); in series [1] (setting [5])) were 32 nM and 2900 nM, respectively.

`CCN(CC)CCCC(C)Nc1ccnc2cc(Cl)ccc12` (stereo not drawn) [Chloroquine, reference compound]: the EC50 came out at 18 nM in the series with Plasmodium falciparum (setting [4]) and 32000 nM in series [1] (setting [6]).

Take `C=C1OC(O)=C(C(=O)C(OC)C2C(/C=C(\CO)C3CCC(C)C(/C(C)=C/CC4OC(C)(C5CCC(C(O)CC)O5)CC4C)O3)CC(C)C(O)C2CO)C1=O` (stereo not drawn) [SF2487 substance Na salt]: the “Rate (%) of proliferation of malarial parasite” value in the series with Plasmodium falciparum (setting [7]) came out at 0%; in the series on Plasmodium falciparum (1 × 10^−8 Molar test compound in culture medium), 10%; with Plasmodium falciparum (1 × 10^−9 Molar test compound in culture medium) it was 60%; in the series on Plasmodium falciparum (1 × 10^−10 Molar test compound in culture medium) it was 100%; in the series with Plasmodium falciparum (3 × 10^−8 Molar test compound in culture medium) it was 5%; with Plasmodium falciparum (3 × 10^−9 Molar test compound in culture medium), 40%. The “Rate (%) of proliferation of malarial parasite” value in the series on Plasmodium falciparum (3 × 10^−10 Molar test compound in culture medium) is 100%; in the series with Plasmodium falciparum (7 × 10^−8 Molar test compound in culture medium), 0%; in the series with Plasmodium falciparum (7 × 10^−9 Molar test compound in culture medium), 25%; in the series on Plasmodium falciparum (7 × 10^−10 Molar test compound in culture medium), 85%. Also, the EC50 in the series with Plasmodium falciparum (Plasmodium falciparum, Erythrocyte, read-out: concentration necessary to inhibit the proliferation of malarial parasite by 50% (EC50)) was 2 nM; in series [1] (setting [6]) it was 1600 nM; in series [1] (read-out: concentration necessary to inhibit the proliferation of cells of the F28-7 cell line by 50% (EC50)), 1600 nM. Moreover, the Selective toxicity with Plasmodium falciparum stood at 800. For the same molecule, the “Rate (%) of proliferation of cells of the F28-7 cell line” value in series [1] (1 × 10^−5 Molar test compound in culture medium) was determined as 0%; in series [1] (1 × 10^−6 Molar test compound in culture medium), 58%; in series [1] (setting [7]), 100%; in series [1] (3 + 10^−5 Molar test compound in culture medium), 0%; in series [1] (3 × 10^−6 Molar test compound in culture medium), 45%; in series [1] (3 × 10^−7 Molar test compound in culture medium), 100%. For the same molecule, the “Rate (%) of proliferation of cells of the F28-7 cell line” value in series [1] (7 × 10^−6 Molar test compound in culture medium) stood at 10%; in series [1] (7 × 10^−7 Molar test compound in culture medium), 70%. Moreover, the “rate (%) of inhibition against the proliferation of the malarial parasite” value in series [2] is reported as 80%. In addition, the LD50 at 14 days in series [3] was at least 25 mg/kg. Besides, the values for the mortality result in the series on ICR mice (12.5 mg/kg intraperitoneal injection) and with ICR mice (25 mg/kg intraperitoneal injection) were “all three mice survived” and “one mouse died among three mice”, respectively. Further, the solubility entry in the series “Solubility in solvents” (in chloroform, ethyl acetate and dimethylsulfoxide) is on record as “soluble”; in “Solubility in solvents” (in ethanol), “slightly soluble”; in “Solubility in solvents” (in water), “hardly soluble”.

On to `C[C@@H]1CC[C@H]2[C@@H](C)C(=O)O[C@@H]3O[C@@]4(C)CC[C@@H]1[C@]32OO4` [Artemisinin, reference compound], for which the EC50 in the series with Plasmodium falciparum (setting [4]) was 7.8 nM; in series [1] (setting [5]), 10000 nM.

For `CCc1nc(N)nc(N)c1-c1ccc(Cl)cc1` [Pyrimethamine, reference compound], in the series on Plasmodium falciparum, the Selective toxicity was determined as 120. Also, the EC50 was determined as 1 nM in the series with Plasmodium falciparum (setting [4]) and 120 nM in series [1] (setting [5]).

As to `C=C[C@H]1C[N@@]2CC[C@H]1C[C@H]2[C@H](O)c1ccnc2ccc(OC)cc12` [Quinine, reference compound], in the series on Plasmodium falciparum, the Selective toxicity is 910. Besides, the EC50 with Plasmodium falciparum (setting [4]) was determined as 110 nM; in series [1] (setting [5]), 100000 nM.
